The assay deals with T1, BTK enzyme (recombinant full-length BTK, hBTK) (Homo sapiens, UniProt Q06187).
T1 construct: recombinant protein from baculovirus-transfected Sf9 cells: full-length BTK, 6HIS-tag cleaved; 6HIS (cleaved yes); made in house; host or cells: baculovirus-transfected Sf9 cells
T1 sequence (Q06187 whole entry): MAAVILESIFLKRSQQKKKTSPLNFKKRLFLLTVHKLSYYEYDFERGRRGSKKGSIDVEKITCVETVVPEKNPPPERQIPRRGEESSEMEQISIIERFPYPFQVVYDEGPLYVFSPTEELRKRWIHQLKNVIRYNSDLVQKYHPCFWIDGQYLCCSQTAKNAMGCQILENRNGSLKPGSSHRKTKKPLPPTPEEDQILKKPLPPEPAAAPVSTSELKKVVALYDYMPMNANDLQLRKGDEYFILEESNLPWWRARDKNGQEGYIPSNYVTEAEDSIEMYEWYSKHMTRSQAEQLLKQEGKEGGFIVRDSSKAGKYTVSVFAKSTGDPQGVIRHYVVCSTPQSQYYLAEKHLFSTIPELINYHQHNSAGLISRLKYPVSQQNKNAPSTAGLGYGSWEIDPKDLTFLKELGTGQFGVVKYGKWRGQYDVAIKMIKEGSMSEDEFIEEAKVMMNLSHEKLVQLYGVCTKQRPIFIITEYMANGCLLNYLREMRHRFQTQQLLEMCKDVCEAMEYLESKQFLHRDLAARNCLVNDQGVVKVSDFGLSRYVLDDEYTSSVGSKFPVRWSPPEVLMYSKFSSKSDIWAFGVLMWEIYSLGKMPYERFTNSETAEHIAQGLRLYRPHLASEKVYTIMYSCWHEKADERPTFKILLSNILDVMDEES
In words: Btk enzyme activity assay, LANCE TR-FRET. It counts as biochemical. To be noted: 50 pM hBTK, 2 μM biotin-A5-peptide, 25 μM ATP, 60 minute compound & enzyme incubation, read-out: BTK binding IC50. The procedure:
BTK enzymatic activity was determined with the LANCE (Lanthanide Chelate Excite) TR-FRET (Time-resolved fluorescence resonance energy transfer) assay. In this assay, the potency (IC50) of each compound was determined from an eleven point (1:3 serial dilution; final compound concentration range in assay from 1 μM to 0.017 nM) titration curve using the following outlined procedure. To each well of a black non-binding surface Corning 384-well microplate (Corning Catalog #3820), 5 nL of compound (2000 fold dilution in final assay volume of 10 μL) was dispensed, followed by the addition of 7.5 μL of 1× kinase buffer (50 mM Hepes 7.5, 10 mM MgCl2, 0.01% Brij-35, 1 mM EGTA, 0.05% BSA & 1 mM DTT) containing 5.09 pg/μL (66.67 pM) of BTK enzyme (recombinant protein from baculovirus-transfected Sf9 cells: full-length BTK, 6HIS-tag cleaved). Following a 60 minute compound & enzyme incubation, each reaction was initiated by the addition of 2.5 μL 1× kinase buffer containing 8 μM biotinylated “A5” peptide (Biotin-EQEDEPEGDYFEWLE-NH2) (SEQ.ID.NO.: 1), and 100 μM ATP. The final reaction in each well of 10 μL consists of 50 pM hBTK, 2 μM biotin-A5-peptide, and 25 μM ATP. Phosphorylation reactions were allowed to proceed for 120 minutes. Reactions were immediately quenched by the addition of 20 uL of 1× quench buffer (15 mM EDTA, 25 mM Hepes 7.3, and 0.1% Triton X-100) containing detection reagents (0.626 nM of LANCE-Eu-W1024-anti-phosphoTyrosine antibody, PerkinElmer and 86.8 nM of Streptavidin-conjugated Dylight 650, Dyomics/ThermoFisher Scientific). After 60 minutes incubation with detection reagents, reaction plates were read on a PerkinElmer EnVision plate reader using standard TR-FRET protocol. Briefly, excitation of donor molecules (Eu-chelate:anti-phospho-antibody) with a laser light source at 337 nm produces energy that can be transferred to Dylight-650 acceptor molecules if this donor:acceptor pair is within close proximity. Fluorescence intensity at both 665 nm (acceptor) and 615 nm (donor) are measured and a TR-FRET ratio calculated for each well (acceptor intensity/donor intensity). IC50 values were determined by 4 parameter robust fit of TR-FRET ratio values vs. (Log10) compound concentrations.
The following Table 3 provides specific IC50 values for all the examples. The IC50 values set forth below were determined according to Assay method described above.
A general note: In TR-FRET formats the signal depends on donor and acceptor labels being close together.
As for `Nc1nccn2c(C34C=CC(C(=O)O)(CC3)CC4)nc(-c3ccc(Oc4ccccc4)cc3)c12` [Example 22, 4-[8-amino-1-(4-phenoxyphenyl)imidazo[1,5-a]pyrazin-3-yl]bicyclo[2.2.2]oct-2-ene-1-carboxylic acid], the IC50 (usually the concentration at which inhibition is half-maximal) stood at 0.26 nM.

Consider `Nc1nccn2c(C34C5C6C3C3C4C5C63C(=O)O)nc(-c3ccc(Oc4ccccc4)cc3)c12` (stereo not shown) [Example 23, 4-(8-amino-1-(4-phenoxyphenyl)imidazo[1,5-a]pyrazin-3-yl)cubane-1-carboxylic acid], for which the half-inhibitory concentration (IC50) stood at 0.3 nM.

As for `Nc1nccn2c(C3(C(=O)O)CCOCC3)nc(-c3ccc(Oc4ccccc4)cc3)c12` [Example 24, 4-[8-amino-1-(4-phenoxyphenyl)imidazo[1,5-a]pyrazin-3-yl]tetrahydro-2H-pyran-4-carboxylic acid], the half-inhibitory concentration (IC50) was determined as 79.6 nM.

Turning to `C[C@]1(C(=O)O)CC[C@H](c2nc(-c3ccc(Oc4ccccc4)cc3)c3c(N)nccn32)CC1` [Example 25, Trans-4-[8-amino-1-(4-phenoxyphenyl)imidazo[1,5-a]pyrazin-3-yl]-1-methylcyclohexane carboxylic acid], the IC50 amounted to 12.3 nM.

These data come from US20170362243A1, “BIARYLETHER IMIDAZOPYRAZINE BTK INHIBITORS” (MERCK SHARP & DOHME CORP., priority 2014, published 2017).
